One may read the IC50 as the concentration that gives 50% inhibition.

Experimental findings from patent US20240140980A1, “HETEROCYCLIC INHIBITORS OF CD73 FOR TREATMENT OF DISEASE” (Teon Therapeutics, Inc., priority 2022, published 2024) are described below.

In this test the target is CD73 (Homo sapiens (Human), UniProt P21589). The experiment in a line: Biochemical CD73 Assay (Malachite Green free phosphate detection). The settings on record: recombinant human CD73 2 nM, AMP 40 μM, 45 min at 37° C. As to the method:
Activity of recombinant CD73 was measured by quantification of free phosphate using the Malachite Green detection system (R&D Systems #DY996). Test compounds were solubilized in DMSO and dispensed into 384-well polystyrene plates in a 8-point 3× titration in duplicates. Then, 10 μL of 4 nM human CD73 enzyme (Novoprotein #C446) in phosphate-free assay buffer (10 mM HEPES, pH 7.4, 125 mM NaCl, 1 mM KCl, 10 mM glucose, 2 mM MgCl2) was added to the plates. The compound and enzyme were incubated for 15 min at RT. Then, 10 μL of 80 μM AMP (Sigma Aldrich #A1752) in the assay buffer was added and the reaction mixture was incubated for 45 min at 37° C. The final concentrations of CD73 and AMP in the reaction were 2 nM and 40 μM, respectively. The reaction was stopped by adding 5 μL of Malachite Green reagent A and incubating for 10 min at RT, followed by addition of 5 μL of Malachite Green reagent B and incubation for 20 min at RT. Absorbance was then read at 620 nm with the Flexstation spectrophotometer (Molecular Devices). The IC50 values were determined using a four-parameter nonlinear regression curve fit.

CD73, sequence (P21589 27-574): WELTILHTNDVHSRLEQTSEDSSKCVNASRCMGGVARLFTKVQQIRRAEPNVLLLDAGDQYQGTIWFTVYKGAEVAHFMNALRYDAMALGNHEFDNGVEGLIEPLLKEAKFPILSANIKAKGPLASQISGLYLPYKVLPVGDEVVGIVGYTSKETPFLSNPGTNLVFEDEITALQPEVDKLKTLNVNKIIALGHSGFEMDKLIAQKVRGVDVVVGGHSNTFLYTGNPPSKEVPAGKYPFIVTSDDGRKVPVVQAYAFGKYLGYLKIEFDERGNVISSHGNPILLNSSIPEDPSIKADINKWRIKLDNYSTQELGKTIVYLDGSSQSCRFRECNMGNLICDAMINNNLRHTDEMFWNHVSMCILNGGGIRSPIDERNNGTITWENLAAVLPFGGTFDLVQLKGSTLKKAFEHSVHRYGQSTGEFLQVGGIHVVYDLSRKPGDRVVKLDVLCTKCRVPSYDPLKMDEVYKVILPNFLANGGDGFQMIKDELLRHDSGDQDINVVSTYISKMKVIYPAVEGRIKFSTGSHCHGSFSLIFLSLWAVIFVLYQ

Turning to `COC[C@@](OC[C@H]1O[C@@H](n2ncc3c(NC4CCCC4)nc(Cl)nc32)[C@H](O)[C@@H]1O)(C(=O)N=S(C)(=O)NC(=O)C1COC1)P(=O)(O)O` (single isomer, unassigned) [Example 21], the IC50 stood at 5.1 nM.

On to `COC[C@@](OC[C@H]1O[C@@H](n2ncc3c(NC4CCCC4)nc(Cl)nc32)[C@H](O)[C@@H]1O)(C(=O)N=[S@@](C)(=O)NC(=O)c1cnn(C)c1)P(=O)(O)O` (single isomer, unassigned) [Example 23], for which the 50% inhibitory concentration (IC50) worked out at 0.47 nM.

Turning to `COC[C@@](OC[C@H]1O[C@@H](n2ncc3c(NC4CCCC4)nc(Cl)nc32)[C@H](O)[C@@H]1O)(C(=O)N=[S@](C)(=O)NC(=O)c1cnn(C)c1)P(=O)(O)O` (single isomer, unassigned) [Example 24], the IC50 came to 2.3 nM.

As to `COC[C@@](OC[C@H]1O[C@@H](n2ncc3c(NC4CCCC4)nc(Cl)nc32)[C@H](O)[C@@H]1O)(C(=O)N=[S@@](C)(=O)NC(=O)c1ccc(F)cc1)P(=O)(O)O` (single isomer, unassigned) [Example 25], the IC50 was determined as 1.13 nM.

As for `COC[C@@](OC[C@H]1O[C@@H](n2ncc3c(NC4CCCC4)nc(Cl)nc32)[C@H](O)[C@@H]1O)(C(=O)N=[S@](C)(=O)NC(=O)c1ccc(F)cc1)P(=O)(O)O` (single isomer, unassigned) [Example 26], the 50% inhibitory concentration (IC50) is 2.36 nM.

Regarding `COC[C@](OC[C@H]1O[C@@H](n2ncc3c(NC4CCCC4)nc(Cl)nc32)[C@H](O)[C@@H]1O)(C(=O)N=[S@](C)(N)=O)P(=O)(O)O` [Example 2, ((2R)-1-((Amino(methyl)(oxo)-λ^6-sulfaneylidene)amino)-2-(((2R,3S,4R,5R)-5-(6-chloro-4-(cyclopentylamino)-1H-pyrazolo[3,4-d]pyrimidin-1-yl)-3,4-dihydroxytetrahydrofuran-2-yl)methoxy)-3-methoxy-1-oxopropan-2-yl)phosphonic Acid], the IC50 was 19 nM.

Consider `COC[C@](OC[C@H]1O[C@@H](n2ncc3c(NC4CCCC4)nc(Cl)nc32)[C@H](O)[C@@H]1O)(C(=O)N=[S@@](C)(N)=O)P(=O)(O)O` [Example 4, ((2R)-1-((Amino(methyl)(oxo)-λ^6-sulfaneylidene)amino)-2-(((2R,3S,4R,5R)-5-(6-chloro-4-(cyclopentylamino)-1H-pyrazolo[3,4-d]pyrimidin-1-yl)-3,4-dihydroxytetrahydrofuran-2-yl)methoxy)-3-methoxy-1-oxopropan-2-yl)phosphonic Acid], for which the IC50 amounted to 275 nM.

Regarding `COC[C@@](OC[C@H]1O[C@@H](n2ncc3c(NC4CCCC4)nc(Cl)nc32)[C@H](O)[C@@H]1O)(C(=O)N=[S@@](C)(=O)NC(C)=O)P(=O)(O)O` [Example 5, ((S)-1-(((R)-Acetamido(methyl)(oxo)-λ^6-sulfaneylidene)amino)-2-(((2R,3S,4R,5R)-5-(6-chloro-4-(cyclopentylamino)-1H-pyrazolo[3,4-d]pyrimidin-1-yl)-3,4-dihydroxytetrahydrofuran-2-yl)methoxy)-3-methoxy-1-oxopropan-2-yl)phosphonic Acid], the IC50 is 1.6 nM.

Take `COC[C@](OC[C@H]1O[C@@H](n2ncc3c(NC4CCCC4)nc(Cl)nc32)[C@H](O)[C@@H]1O)(C(=O)N=[S@@](C)(=O)NC(C)=O)P(=O)(O)O` [Example 6, ((R)-1-(((R)-Acetamido(methyl)(oxo)-λ^6-sulfaneylidene)amino)-2-(((2R,3S,4R,5R)-5-(6-chloro-4-(cyclopentylamino)-1H-pyrazolo[3,4-d]pyrimidin-1-yl)-3,4-dihydroxytetrahydrofuran-2-yl)methoxy)-3-methoxy-1-oxopropan-2-yl)phosphonic Acid]: the IC50 was 220 nM.

With `COC[C@@](OC[C@H]1O[C@@H](n2ncc3c(NC4CCCC4)nc(Cl)nc32)[C@H](O)[C@@H]1O)(C(=O)N=[S@@](C)(=O)NC(=O)OC)P(=O)(O)O` [Example 7, ((S)-2-(((2R,3S,4R,5R)-5-(6-Chloro-4-(cyclopentylamino)-1H-pyrazolo[3,4-d]pyrimidin-1-yl)-3,4-dihydroxytetrahydrofuran-2-yl)methoxy)-3-methoxy-1-(((R)-((methoxycarbonyl)amino)(methyl)(oxo)-λ^6-sulfaneylidene)amino)-1-oxopropan-2-yl)phosphonic Acid], the IC50 was found to be 1.7 nM.

Regarding `COC[C@](OC[C@H]1O[C@@H](n2ncc3c(NC4CCCC4)nc(Cl)nc32)[C@H](O)[C@@H]1O)(C(=O)N=[S@@](C)(=O)NC(=O)OC)P(=O)(O)O` [Example 8, ((R)-2-(((2R,3S,4R,5R)-5-(6-Chloro-4-(cyclopentylamino)-1H-pyrazolo[3,4-d]pyrimidin-1-yl)-3,4-dihydroxytetrahydrofuran-2-yl)methoxy)-3-methoxy-1-(((R)-((methoxycarbonyl)amino)(methyl)(oxo)-λ^6-sulfaneylidene)amino)-1-oxopropan-2-yl)phosphonic Acid], the IC50 is 879 nM.

Regarding `COC[C@@](OC[C@H]1O[C@@H](n2ncc3c(NC4CCCC4)nc(Cl)nc32)[C@H](O)[C@@H]1O)(C(=O)N=[S@](C)(=O)NC(=O)C1COC1)P(=O)(O)O` [Example 22, ((2S)-2-(((2R,3S,4R,5R)-5-(6-chloro-4-(cyclopentylamino)-1H-pyrazolo[3,4-d]pyrimidin-1-yl)-3,4-dihydroxytetrahydrofuran-2-yl)methoxy)-3-methoxy-1-((methyl(oxetane-3-carboxamido)(oxo)-λ^6-sulfaneylidene)amino)-1-oxopropan-2-yl)phosphonic Acid], the IC50 came out at 0.21 nM.

With `COC[C@@](OC[C@H]1O[C@@H](n2ncc3c(NC4CCCC4)nc(Cl)nc32)[C@H](O)[C@@H]1O)(C(=O)N=[S@@](C)(=O)NC(=O)c1cccnc1)P(=O)(O)O` [Example 27, ((2S)-2-(((2R,3S,4R,5R)-5-(6-chloro-4-(cyclopentylamino)-1H-pyrazolo[3,4-d]pyrimidin-1-yl)-3,4-dihydroxytetrahydrofuran-2-yl)methoxy)-3-methoxy-1-((methyl(nicotinamido)(oxo)-λ^6-sulfaneylidene)amino)-1-oxopropan-2-yl)phosphonic Acid], the concentration for half-maximal inhibition (IC50) was determined as 7.8 nM.

On to `COC[C@@](OC[C@H]1O[C@@H](n2ncc3c(NC4CCCC4)cc(Cl)nc32)[C@H](O)[C@@H]1O)(C(=O)N=[S@](C)(=O)NC(=O)C1CC1)P(=O)(O)O` [Example 28, ((S)-2-(((2R,3S,4R,5R)-5-(6-chloro-4-(cyclopentylamino)-1H-pyrazolo[3,4-b]pyridin-1-yl)-3,4-dihydroxytetrahydrofuran-2-yl)methoxy)-1-(((S)-cyclopropanecarboxamido(methyl)(oxo)-λ^6-sulfaneylidene)amino)-3-methoxy-1-oxopropan-2-yl)phosphonic Acid], for which the 50% inhibitory concentration (IC50) was found to be 1 nM.

For the molecule `CNC(=O)N[S@](C)(=O)=NC(=O)[C@@](COC)(OC[C@H]1O[C@@H](n2ncc3c(NC4CCCC4)cc(Cl)nc32)[C@H](O)[C@@H]1O)P(=O)(O)O` [Example 29, ((S)-2-(((2R,3S,4R,5R)-5-(6-chloro-4-(cyclopentylamino)-1H-pyrazolo[3,4-b]pyridin-1-yl)-3,4-dihydroxytetrahydrofuran-2-yl)methoxy)-3-methoxy-1-(((R)-methyl(3-methylureido)(oxo)-λ^6-sulfaneylidene)amino)-1-oxopropan-2-yl)phosphonic Acid], the IC50 is 10 nM.

Regarding `CNC(=O)N[S@@](C)(=O)=NC(=O)[C@@](COC)(OC[C@H]1O[C@@H](n2ncc3c(NC4CCCC4)cc(Cl)nc32)[C@H](O)[C@@H]1O)P(=O)(O)O` [Example 30, ((S)-2-(((2R,3S,4R,5R)-5-(6-chloro-4-(cyclopentylamino)-1H-pyrazolo[3,4-b]pyridin-1-yl)-3,4-dihydroxytetrahydrofuran-2-yl)methoxy)-3-methoxy-1-(((S)-methyl(3-methylureido)(oxo)-λ^6-sulfaneylidene)amino)-1-oxopropan-2-yl)phosphonic Acid], the half-maximal inhibitory concentration (IC50) stood at 0.6 nM.

For `COC[C@@](OC[C@H]1O[C@@H](n2ncc3c(NC4CCCC4)cc(Cl)nc32)[C@H](O)[C@@H]1O)(C(=O)N=[S@@](C)(=O)NC(C)=O)P(=O)(O)O` [Example 31, ((S)-1-(((R)-acetamido(methyl)(oxo)-λ^6-sulfaneylidene)amino)-2-(((2R,3S,4R,5R)-5-(6-chloro-4-(cyclopentylamino)-1H-pyrazolo[3,4-b]pyridin-1-yl)-3,4-dihydroxytetrahydrofuran-2-yl)methoxy)-3-methoxy-1-oxopropan-2-yl)phosphonic Acid], the 50% inhibitory concentration (IC50) worked out at 0.5 nM.

With `COC[C@@](OC[C@H]1O[C@@H](n2ncc3c(NC4CCCC4)cc(Cl)nc32)[C@H](O)[C@@H]1O)(C(=O)N=[S@](C)(=O)NC(C)=O)P(=O)(O)O` [Example 32, ((S)-1-(((S)-acetamido(methyl)(oxo)-λ^6-sulfaneylidene)amino)-2-(((2R,3S,4R,5R)-5-(6-chloro-4-(cyclopentylamino)-1H-pyrazolo[3,4-b]pyridin-1-yl)-3,4-dihydroxytetrahydrofuran-2-yl)methoxy)-3-methoxy-1-oxopropan-2-yl)phosphonic Acid], the IC50 is 1 nM.

Take `COC[C@@](OC[C@H]1O[C@@H](n2ncc3c(NC4CCCC4)cc(Cl)nc32)[C@H](O)[C@@H]1O)(C(=O)N=[S@@](C)(=O)NC(=O)C(C)C)P(=O)(O)O` [Example 33, ((2S)-2-(((2R,3S,4R,5R)-5-(6-chloro-4-(cyclopentylamino)-1H-pyrazolo[3,4-b]pyridin-1-yl)-3,4-dihydroxytetrahydrofuran-2-yl)methoxy)-1-((isobutyramido(methyl)(oxo)-λ^6-sulfaneylidene)amino)-3-methoxy-1-oxopropan-2-yl)phosphonic Acid]: the IC50 stood at 11 nM.
